Experimental data taken from patent publication US9255100B2 (BAYER INTELLECTUAL PROPERTY GMBH, priority 2010, dated 2016).

These compounds were tested against T1, N-terminally GST-tagged human full length recombinant Mps-1 kinase (Homo sapiens, UniProt P33981) (assay: Mps-1 kinase assay (TR-FRET)). Conditions: 10 μM ATP, 1 μM peptide substrate, 60 min at 22° C., read-out: Mps1 IC50.
T1 construct: N-terminally GST-tagged human full length recombinant Mps-1 kinase; purchased Invitrogen, Karslruhe, Germany PV4071
T1 sequence (P33981 1-857): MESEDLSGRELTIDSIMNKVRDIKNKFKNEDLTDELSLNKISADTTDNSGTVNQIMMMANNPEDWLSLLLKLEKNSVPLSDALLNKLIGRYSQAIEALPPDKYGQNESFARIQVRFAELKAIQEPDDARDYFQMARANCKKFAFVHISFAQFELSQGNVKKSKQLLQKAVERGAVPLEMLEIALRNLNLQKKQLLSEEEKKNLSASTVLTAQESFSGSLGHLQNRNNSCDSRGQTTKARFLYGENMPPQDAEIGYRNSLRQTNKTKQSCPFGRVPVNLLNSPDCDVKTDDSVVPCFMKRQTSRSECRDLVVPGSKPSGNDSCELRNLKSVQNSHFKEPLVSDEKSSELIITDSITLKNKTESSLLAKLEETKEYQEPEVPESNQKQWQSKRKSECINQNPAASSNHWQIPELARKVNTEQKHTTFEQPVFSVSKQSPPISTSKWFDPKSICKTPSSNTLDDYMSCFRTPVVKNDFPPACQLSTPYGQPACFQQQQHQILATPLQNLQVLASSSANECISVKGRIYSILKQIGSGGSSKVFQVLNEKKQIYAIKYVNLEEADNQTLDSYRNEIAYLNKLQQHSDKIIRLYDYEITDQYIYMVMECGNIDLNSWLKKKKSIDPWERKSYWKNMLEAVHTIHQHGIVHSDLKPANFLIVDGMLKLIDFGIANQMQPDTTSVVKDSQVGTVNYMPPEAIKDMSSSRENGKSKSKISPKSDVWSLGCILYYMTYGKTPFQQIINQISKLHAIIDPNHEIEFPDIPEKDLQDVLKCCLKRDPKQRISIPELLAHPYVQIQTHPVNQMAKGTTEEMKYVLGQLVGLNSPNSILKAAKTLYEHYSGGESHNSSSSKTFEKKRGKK
Format: biochemical
Procedure, shortened: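 Next, Eu-labelled anti-phospho(Ser/Thr) antibody and SA-XLent bind for 1 h at 22° C. Finally, energy transfer quantifies phosphorylated product.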

Compound	IC50
Cc1cc(-c2cnc3c(NCC4CC[S+]([O-])CC4)cc(Oc4ccc(F)cc4)nn23)ccc1C(=O)NC1CC1 (mixture of isomers) [Example 295B, N-cyclopropyl-4-[6-(4-fluorophenoxy)-8-({[(cis/trans)-1-oxidotetrahydro-2H-thiopyran-4-yl]methyl}amino)imidazo[1,2-b]pyridazin-3-yl]-2-methylbenzamide]	0.2 nM

Same assay, conditions: Mps1 IC50 [nM], 10 μM ATP, 1 μM peptide substrate, 60 min at 22° C.

IC50	Compound
1.9 nM	Cc1cc(-c2cnc3c(NCC(C)(C)O)cc(OCc4ccccc4)nn23)ccc1C(=O)NC1CC1 [Example 326, 4-{6-(benzyloxy)-8-[(2-hydroxy-2-methylpropyl)amino]imidazo[1,2-b]pyridazin-3-yl}-N-cyclo-propyl-2-methylbenzamide]
0.1 nM	Cc1cc(-c2cnc3c(NCCC(F)(F)F)cc(Nc4ccc(F)nc4)nn23)ccc1C(=O)NC1CC1 [Example 440, N-cyclopropyl-4-{6-[(6-fluoropyridin-3-yl)-amino]-8-[(3,3,3-trifluoropropyl)amino]imidazo[1,2-b]pyridazin-3-yl}-2-methylbenzamide]
0.6 nM	Cc1cc(-c2cnc3c(NCC(C)(C)O)cc(Nc4ccccc4)nn23)ccc1C(=O)NC1CC1 [Example 306, 4-{6-anilino-8-[(2-hydroxy-2-methylpropyl)amino]imidazo[1,2-b]pyridazin-3-yl}-N-cyclopropyl-2-methylbenzamide]
0.5 nM	Cc1cc(-c2cnc3c(NCC4CCS(=O)(=O)CC4)cc(Oc4cccnc4)nn23)ccc1C(=O)NC1CC1 [Example 296A, N-cyclopropyl-4-[8-{[(1,1-dioxidotetrahydro-2H-thiopyran-4-yl)methyl]amino}-6-(pyridin-3-yloxy)imidazo[1,2-b]pyridazin-3-yl]-2-methylbenzamide]
0.1 nM	Cc1cc(-c2cnc3c(NCCC(F)(F)F)cc(Oc4ccc(F)nc4)nn23)ccc1C(=O)NC1CC1 [Example 436, N-cyclopropyl-4-{6-[(6-fluoropyridin-3-yl)oxy]-8-[(3,3,3-trifluoropropyl)amino]imidazo[1,2-b]pyridazin-3-yl}-2-methylbenzamide]
0.3 nM	Cc1cc(-c2cnc3c(NCC4CNC4)cc(Oc4ccccc4)nn23)ccc1C(=O)NC1CC1 [Example 315, 4-{8-[(azetidin-3-ylmethyl)amino]-6-phenoxy-imidazo[1,2-b]pyridazin-3-yl}-N-cyclopropyl-2-methylbenzamide]
0.2 nM	Cc1cc(-c2cnc3c(NCCC(F)(F)F)cc(Sc4ccccc4F)nn23)ccc1C(=O)NC1CC1 [Example 268, N-cyclopropyl-4-{6-[(2-fluorophenyl)sulfanyl]-8-[(3,3,3-trifluoropropyl)amino]imidazo[1,2-b]pyridazin-3-yl}-2-methylbenzamide]
660 nM	CNC(=O)c1ccc(-c2cnc3c(NCc4cccs4)cc(Cl)nn23)cc1 [Example 190, 4-{6-Chloro-8-[(thiophen-2-yl-methyl)amino]imidazo[1,2-b]pyridazin-3-yl}-N-methylbenzamide]
3.3 nM	Cc1cc(-c2cnc3c(NCC(C)(C)O)cc(Oc4ccc(N5CCNCC5)cc4)nn23)ccc1C(=O)NC1CC1 [Example 320, N-cyclopropyl-4-{8-[(2-hydroxy-2-methylpropyl)amino]-6-[4-(piperazin-1-yl)phenoxy]imidazo [1,2-b]pyridazin-3-yl}-2-methylbenzamide]
0.1 nM	Cc1cc(-c2cnc3c(NCCC(F)(F)F)cc(Nc4ccccc4CO)nn23)ccc1C(=O)NC1CC1 [Example 370]
0.3 nM	Cc1cc(-c2cnc3c(NCC(C)(C)O)cc(Oc4cccc(OC(C)C)c4)nn23)ccc1C(=O)NC1CC1 [Example 361, N-cyclopropyl-4-{8-[(2-hydroxy-2-methylpropyl)amino]-6-(3-isopropoxyphenoxy)imidazo[1,2-b]pyridazin-3-yl}-2-methylbenzamide]

The remaining lines, values behind:

Compound	IC50
CNC(=O)Nc1ccc(-c2cc(NCC(C)C)c3ncc(-c4ccc(C(=O)NC5CC5)cc4)n3n2)cc1 [Example 146, N-cyclopropyl-4-(6-{4-[(methylcarbamoyl)amino]phenyl}-8-[(2-methylpropyl)amino]imidazo[1,2-b]pyridazin-3-yl)benzamide]	3.8 nM
CC(C)CNc1cc(-c2ccc(S(C)(=O)=O)cc2)nn2c(-c3ccc(C(=O)NC4CC4)cc3)cnc12 [Example 142, N-cyclopropyl-4-{8-[(2-methylpropyl)amino]-6-[4-(methylsulfonyl)phenyl]imidazo[1,2-b]pyridazin-3-yl}benzamide]	1.4 nM
C/C=C/c1cc(NCCC(F)(F)F)c2ncc(-c3ccc(-c4cnc(C5CC5)[nH]4)cc3)n2n1 [Example 16, 3-[4-(2-Cyclopropyl-1H-imidazol-5-yl)phenyl]-6-[(1E)-prop-1-en-1-yl]-N-(3,3,3-trifluoropropyl)imidazo[1,2-b]pyridazin-8-amine]	27.3 nM
Cc1cc(C)cc(Oc2cc(NCC(C)(C)O)c3ncc(-c4ccc(C(=O)NC5CC5)c(C)c4)n3n2)c1 [Example 96, N-cyclopropyl-4-{6-(3,5-dimethylphenoxy)-8-[(2-hydroxy-2-methylpropyl)amino]imidazo[1,2-b]pyridazin-3-yl}-2-methylbenzamide]	0.8 nM
CC(C)CNc1cc(-c2ccc3nccn3c2)nn2c(-c3ccc(C(=O)NC4CC4)cc3)cnc12 [Example 145, N-cyclopropyl-4-{6-(imidazo[1,2-a]pyridin-6-yl)-8-[(2-methylpropyl)amino]imidazo[1,2-b]pyridazin-3-yl}benzamide]	< 1 nM
CC(C)CNc1cc(Cl)nn2c(-c3ccc(-c4cnc(C5CC5)[nH]4)cc3)cnc12 [Example 184, 6-Chloro-3-[4-(2-cyclopropyl-1H-imidazol-5-yl)phenyl]-N-(2-methylpropyl)imidazo[1,2-b]pyridazin-8-amine]	101 nM
Cc1cc(-c2cnc3c(NCC4CCCCO4)cc(-c4ccncc4)nn23)ccc1C(=O)NC1CC1 (racemic) [Example 37, (RS)—N-cyclopropyl-2-methyl-4-{6-(pyridin-4-yl)-8-[(tetrahydro-2H-pyran-2-ylmethyl)amino]imidazo[1,2-b]pyridazin-3-yl}benzamide]	< 1 nM
Cc1ccc(F)cc1Sc1cc(NCC(C)(C)O)c2ncc(-c3ccc(C(=O)NC4CC4)c(C)c3)n2n1 [Example 64, N-cyclopropyl-4-{6-[(5-fluoro-2-methylphenyl)sulfanyl]-8-[(2-hydroxy-2-methylpropyl)amino]imidazo[1,2-b]pyridazin-3-yl}-2-methylbenzamide]	0.1 nM
Cc1cc(-c2cnc3c(NCC(C)(C)O)cc(Oc4ccc5ncccc5c4)nn23)ccc1C(=O)NC1CC1 [Example 168, N-cyclopropyl-4-{8-[(2-hydroxy-2-methylpropyl)amino]-6-(quinolin-6-yloxy)imidazo[1,2-b]pyridazin-3-yl}-2-methylbenzamide]	0.3 nM
CC(C)CNc1cc(-c2ccc(F)cc2)nn2c(-c3ccc(C(=O)NC4CC4)cc3)cnc12 [Example 104, N-cyclopropyl-4-{6-(4-fluorophenyl)-8-[(2-methylpropyl)amino]imidazo[1,2-b]pyridazin-3-yl}benzamide]	< 1 nM
CC(C)CNc1cc(-c2ccc(O)cc2)nn2c(-c3ccc(C(=O)NC4CC4)cc3)cnc12 [Example 141, N-cyclopropyl-4-{6-(4-hydroxyphenyl)-8-[(2-methylpropyl)amino]imidazo[1,2-b]pyridazin-3-yl}benzamide]	2.4 nM
